Test [1] concerns the target T1, Integrin alpha-IIb/beta-3 (Homo sapiens, UniProt P05106+P08514). The test can be described thus: Affinity for purified activated GPIIb/IIIa fibrinogen receptor in ELISA. It is filed as protein-complex assay. (An ELISA detects its analyte on a solid surface through an enzyme-linked reagent.)
The target of test [2] is T1, Integrin alpha-IIb/beta-3. The experiment in a line: Binding to [125I]- fibrinogen by washed platelet fibrinogen receptor.

pIC50: −log10 of the molar value.

By pIC50 is commonly meant the IC50 on a negative log10 scale, so that one unit is a factor of ten.

T1 sequence (P05106 27-788 limits assumed): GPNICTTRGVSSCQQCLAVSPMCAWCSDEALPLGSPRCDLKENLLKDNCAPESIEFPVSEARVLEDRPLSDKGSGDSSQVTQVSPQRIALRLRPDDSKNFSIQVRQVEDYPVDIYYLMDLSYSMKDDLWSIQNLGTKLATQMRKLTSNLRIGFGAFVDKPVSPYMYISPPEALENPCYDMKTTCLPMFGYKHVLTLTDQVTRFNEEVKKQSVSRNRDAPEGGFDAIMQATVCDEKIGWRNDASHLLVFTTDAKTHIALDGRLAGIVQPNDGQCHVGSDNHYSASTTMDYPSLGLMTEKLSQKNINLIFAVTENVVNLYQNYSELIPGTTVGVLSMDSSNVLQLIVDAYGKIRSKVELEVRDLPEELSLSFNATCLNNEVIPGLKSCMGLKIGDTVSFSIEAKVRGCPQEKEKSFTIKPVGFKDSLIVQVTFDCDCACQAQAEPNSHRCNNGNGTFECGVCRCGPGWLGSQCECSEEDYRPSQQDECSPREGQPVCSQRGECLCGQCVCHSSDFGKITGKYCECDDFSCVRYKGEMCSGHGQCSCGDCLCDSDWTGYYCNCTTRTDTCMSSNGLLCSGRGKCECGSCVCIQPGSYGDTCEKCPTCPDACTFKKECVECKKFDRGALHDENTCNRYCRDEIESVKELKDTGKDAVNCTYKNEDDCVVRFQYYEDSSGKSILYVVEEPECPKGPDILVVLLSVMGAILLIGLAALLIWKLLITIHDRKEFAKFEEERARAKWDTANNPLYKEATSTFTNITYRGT
T1 sequence (P08514 32-887 limits assumed): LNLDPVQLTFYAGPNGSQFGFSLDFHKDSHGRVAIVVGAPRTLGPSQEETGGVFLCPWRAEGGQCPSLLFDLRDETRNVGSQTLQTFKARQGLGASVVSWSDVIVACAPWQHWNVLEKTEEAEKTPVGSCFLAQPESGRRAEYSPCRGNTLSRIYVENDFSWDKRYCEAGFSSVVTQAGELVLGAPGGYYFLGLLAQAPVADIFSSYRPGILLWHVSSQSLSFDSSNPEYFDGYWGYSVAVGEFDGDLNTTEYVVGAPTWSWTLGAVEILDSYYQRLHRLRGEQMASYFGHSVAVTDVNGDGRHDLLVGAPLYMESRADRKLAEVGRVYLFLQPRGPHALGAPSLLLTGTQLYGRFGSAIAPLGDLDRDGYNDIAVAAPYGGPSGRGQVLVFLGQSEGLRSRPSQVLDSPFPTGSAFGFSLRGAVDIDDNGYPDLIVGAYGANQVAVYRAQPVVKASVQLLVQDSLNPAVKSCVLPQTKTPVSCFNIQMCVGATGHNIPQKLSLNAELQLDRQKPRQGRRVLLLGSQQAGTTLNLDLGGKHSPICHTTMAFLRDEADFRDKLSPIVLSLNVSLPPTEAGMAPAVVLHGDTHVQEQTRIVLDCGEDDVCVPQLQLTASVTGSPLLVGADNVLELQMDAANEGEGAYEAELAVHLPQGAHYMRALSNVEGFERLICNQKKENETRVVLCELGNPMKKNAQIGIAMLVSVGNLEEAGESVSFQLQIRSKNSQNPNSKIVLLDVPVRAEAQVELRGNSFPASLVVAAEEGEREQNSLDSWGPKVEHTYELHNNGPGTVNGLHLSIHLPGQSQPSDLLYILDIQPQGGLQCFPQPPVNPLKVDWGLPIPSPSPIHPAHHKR
T1 sequence (P08514 891-1039 limits assumed): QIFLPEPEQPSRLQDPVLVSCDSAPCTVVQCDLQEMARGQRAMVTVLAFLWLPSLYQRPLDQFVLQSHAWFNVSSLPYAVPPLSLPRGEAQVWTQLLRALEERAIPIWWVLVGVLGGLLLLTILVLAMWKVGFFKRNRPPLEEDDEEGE

`Cn1c2c(s/c1=N\C(=O)c1ccc(C(=N)N)cc1)C(=O)N(CCC(=O)O)C2`: the pIC50 in test [1] is 8.32; in test [2], 7.17.

As for `Cc1c(C(=O)N(C)CCC(=O)O)s/c(=N\C(=O)c2ccc(C(=N)N)cc2)n1C`, the pIC50 in test [1] was 9.05; in test [2] it was 7.29.

As for `CCn1c(C)c(C(=O)NCCC(=O)O)s/c1=N\C(=O)c1ccc(C(=N)N)cc1`, the pIC50 in test [1] is 9.92.

In the case of `Cc1nc(NC(=O)c2ccc(C(=N)N)cc2)sc1CCC(=O)O`, the pIC50 is 9.24 in test [1] and 7.22 in test [2].

`CCCCn1c(C)c(C(=O)NCCC(=O)O)s/c1=N\C(=O)c1ccc(C(=N)N)cc1`: the values for the negative-log IC50 (pIC50) in test [1] and in test [2] were 9.89 and 8.20, respectively.

As to `N=C(N)c1ccc(C(=O)Nc2cccc(CCC(=O)O)c2)cc1`, the values for the pIC50 in test [1] and in test [2] were 9.26 and 6.98, respectively.

In test [1], `Cc1c(C(=O)NCCC(=O)O)s/c(=N\C(=O)c2ccc(C(=N)N)cc2)n1Cc1ccccc1` gave a pIC50 of 10.05.

In test [1], `Cc1nc(N(C)C(=O)c2ccc(C(=N)N)cc2)sc1CCC(=O)O` showed a pIC50 of 9.00.

Values taken from ChEMBL document CHEMBL1134022, “2-Acylimino-3H-thiazoline derivatives: a novel template for platelet GPIIb/IIIa receptor antagonists” (Bioorg Med Chem Lett, 2001).
